The source of these data is patent US20110052722A1, “Toleration Iron Supplement Compositions” (priority 2005, published 2011).

The subject of data set [1] is Sprague Dawley Crl:CD(SD) rats. Briefly: Repeated daily oral gavage study in rats: hematology, serum iron, gross necropsy. Particulars: once per day oral gavage. Type of data set: in vivo. As for the experimental part:
The test material solution or vehicle control was administered once per day by oral gavage administration, and individual dose volumes were calculated based on the most recent body weight data for each animal.
General health/mortality and moribundity checks were performed twice daily, and detailed clinical observations were performed on days 1, 8, and 15 prior to dosing. Hematology parameters were evaluated for all animals on days 1, 7, and 14. Blood collection for serum iron concentration evaluation was performed on these days as well, and blood samples were obtained via the orbital plexus while the animals were under light isoflurane anesthesia. All animals were subjected to complete gross necropsy examination at scheduled euthanasia.
Blood samples for hematology testing were collected in volumes of about 200 μL in tubes containing anticoagulant K2EDTA, and were evaluated for red blood cell count (RBC), hemoglobin concentration (Hb), hematocrit (Hct), mean corpuscular volume (MCV), mean corpuscular hemoglobin concentration (MCHC), mean corpuscular hemoglobin (MCH), reticulocyte count (Retic), red blood cell morphology, white blood cell count (WBC), neutrophil count (Neut), lymphocyte count (Lymph), monocyte count (Mono), eosinophil count (Eos), and basophil count (Baso). Serum iron was measured by taking about 1 mL blood samples in a serum separator tube.

The conditions of data set [2]: total administration should not exceed; cited from earlier work.
For data set [3] the following is noted: cited from earlier work.
Setting [4] is: versus ferrous sulfate and/or ferrous fumarate, Newton et al. 1980, Piccinni et al. 1982.

`O=C([O-])/C=C/C(=O)[O-].[Fe+2]` [ferrous fumarate]: the “immune response (segmented neutrophils, platelets, lymphocytes)” value in data set [1] (Group 2 500 mg Fe/kg, Group 3 250 + 250 mg Fe/kg, hematology days 1, 7, 14) is recorded as “about the same”. In addition, the “gross internal findings at necropsy” value in data set [1] (Group 2 500 mg Fe/kg, Group 3 250 + 250 mg Fe/kg, scheduled euthanasia) was “body fat depletion, thyroid nodules, reddened mandibular lymph nodes, reddened stomach mucosa, small thymus, foci on the thymus, and dark fecal matter”. For the same compound, the serum iron levels result in data set [1] (ferrous fumarate 500 mg Fe/kg (Group 2), ferrous fumarate 250 + PIC 250 mg Fe/kg (Group 3), blood on days 1, 7, 14) is reported as “significant increases”. For the same compound, the toxicity limits in data set [2] is 200 to 250 mg/kg.

As for polysaccharide iron complex [PIC], in data set [3] (setting [4]), the “efficacy at increasing hemoglobin and hematocrit values” is recorded as “equivalent efficacy”; the tolerability result is “better tolerated”. Further, the gastrointestinal side effects entry in data set [3] (versus ferrous sulfate, Johnson et al., Niferex-150 in ESRD patients receiving EPOGEN) is “fewer gastrointestinal side effects”.
